From patent publication US7355055B2, “Compounds for treatment of lipase-mediated diseases” (Reliance Life Sciences Pvt. Ltd., priority 2005, dated 2008)
Counter-ions that a name gives are not always drawn.

Tests used:
Pancreatic Lipase = molecular target: T1, Pancreatic Lipase (Sus scrofa, UniProt P00591); assay: Pancreatic lipase inhibition assay (p-nitro phenol palmitate substrate, 96-well); format: biochemical; conditions: for IC50: dose range 6.25 μM-200 μM, interpolated by linear regression; for inhibition at 100 µM / inhibition at 200 µM: pancreatic lipase, 37° C., OD 405 nm; for inhibition at 100 µM: compound 100 μM; for inhibition at 200 µM: compound 200 μM
T1 construct: purchased Sigma L-3126
T1 sequence (P00591 1-450): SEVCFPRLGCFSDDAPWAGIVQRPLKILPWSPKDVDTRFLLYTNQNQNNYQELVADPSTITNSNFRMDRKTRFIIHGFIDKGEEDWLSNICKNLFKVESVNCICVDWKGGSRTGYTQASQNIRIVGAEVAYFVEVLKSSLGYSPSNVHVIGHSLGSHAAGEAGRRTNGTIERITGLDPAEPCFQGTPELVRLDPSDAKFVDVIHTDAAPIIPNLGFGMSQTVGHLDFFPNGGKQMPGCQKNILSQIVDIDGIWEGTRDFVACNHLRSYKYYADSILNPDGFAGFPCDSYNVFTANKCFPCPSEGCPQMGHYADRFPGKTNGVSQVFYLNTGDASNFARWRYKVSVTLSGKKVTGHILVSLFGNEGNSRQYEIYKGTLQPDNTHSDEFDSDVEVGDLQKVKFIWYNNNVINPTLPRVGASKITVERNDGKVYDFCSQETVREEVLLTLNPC
Protocol: (§1) Preparation of test samples: Structures #2-#19 were dissolved in 1 mL DMSO to obtain a 10 mM stock solution, and were vortexed to dissolution and stored at 4° C. The various concentration of working samples were prepared in 0.2 M phosphate buffer, pH-8.0. This sample was used as test sample for all further assays.
Lipase assay: Lipase assay was performed by method described by Winkler and Stuckmann, 1979, with modification. (Winkler, U. K. & Stuckmann, M. Glycogen, hyaluronate, and some other polysaccharides greatly enhance the formation of exolipase by Serratia marcescens. J. Bacteriol. 138: 663-670 (1979)) Assay was designed, using a 96-well format. The substrate used in this assay was p-nitro phenol palmitate (Sigma, Cat No-N-2752). 4.5 mg of p-nitro phenol palmitate was dissolved in 200 μl of N,N-dimethyl formamide (Sigma, Cat No, D-4551) and volume made up to 10 ml with 0.1 M pH 8.0 phosphate buffer. Pancreatic Lipase (Sigma, Cat No. L-3126) sample was prepared by dissolving the enzyme in 0.1M phosphate buffer at a concentration of 5 mg/ml. The reaction mixture consisted of 150 μl substrate solution; 40 μl phosphate buffer (pH 8.0, 0.2 M) and 10 μl lipase solution. The reaction mixture was incubated at 37° C. and optical density was measured at 405 nm after incubation. Enzyme activity was presented in the form of international unit (IU).
Lipase activity: One enzyme unit of lipase is defined as that quantity releasing 1 nm of free phenol from the substrate (p-nitro phenol palmitate) per min per ml under the standard assay condition (Winkler and Stuckmann, 1979; Yadav R P, Saxena R K, Gupta R. Davidson W S., Purification and characterization of a region-specific lipase from Aspergillus terreus. Biotechnol. Appl. Biochem. (1998) 28, (243-249)). It is derived from standard graph of p-nitro phenol (Sigma, 104-8).
(§2) Lipase inhibition assay: Enzyme inhibition assay was performed in a dose dependent manner. The concentration of the synthetic analogs checked were 100 μM & 200 μM. The assay was similar to assay described above except 40 μl of test sample was used instead of phosphate buffer in control. Optical density was measured at 0 hr and following incubation at 37° C.
Enzyme Inhibition: Enzyme inhibition was presented in the term of relative activity and percentage inhibition simply on the basis of change in international unit (IU).
as §1, with “Synthetic analogues” for “Structures #2-#19”, “ml” for “mL”, “solution. The samples” for “solution, and”, “O.2” for “0.2”
as §2, with “6.25 μM-200” for “100 μM & 200”, “C. The enzyme activity was measured in terms of international unit (IU).” for “C.”
Lipase activity: One enzyme unit of lipase is defined as that quantity releasing 1 nm of free phenol from the substrate (p-nitro phenol palmitate)/min per ml under standard assay conditions. It is derived from standard graph of p-nitro phenol (Sigma, 104-8)
Percent Inhibition: Enzyme inhibition was presented in the term of % inhibition simply on the basis of change in international unit (IU).
The value of IC50 was derived from linear regression. The value derived is based on interpolated data.

SMILES	melting point	IC50 (Pancreatic Lipase)	inhibition at 100 µM (Pancreatic Lipase)	inhibition at 200 µM (Pancreatic Lipase)
CCCCCCCCCCCC1=C(OC(=O)c2cccc(Cl)c2)C(=O)C=C(OC(=O)c2cccc(Cl)c2)C1=O (as salt: Na) [Structure #7, 2,5-bis-(3-chlorophenylcarbonyloxy)-3-undecyl-1,4-benzoquinone]	102.8 to 104.6 °C			
CCCCCCCCCCCC1=C(OC(=O)c2ccccc2Cl)C(=O)C=C(OC(=O)c2ccccc2Cl)C1=O (as salt: Na) [Structure #8, 2,5-bis-(2-chlorophenylcarbonyloxy)-3-undecyl-1,4-benzoquinone]	56.2 to 57.8 °C			
CCCCCCCCCCCC1=C(OC(=O)c2ccccc2[N+](=O)[O-])C(=O)C=C(OC(=O)c2ccccc2[N+](=O)[O-])C1=O (as salt: Na) [Structure #14, 2,5-bis-(2-nitrophenylcarbonyloxy)-3-undecyl-1,4-benzoquinone]	72.2 to 73.8 °C			
CCCCCCCCCCCC1=C(OC(=O)c2ccccc2I)C(=O)C=C(OC(=O)c2ccccc2I)C1=O (as salt: Na) [Structure #19, 2,5-bis-(2-iodophenylcarbonyloxy)-3-undecyl-1,4-benzoquinone]	64.2 to 67.6 °C			
CCCCCCCCCCCC1=C(OC(=O)c2cccc(F)c2)C(=O)C=C(OC(=O)c2cccc(F)c2)C1=O [Structure #2, 2,5-bis-(3-fluorophenylcarbonyloxy)-3-undecyl-1,4-benzoquinone]	73.2 to 75.6 °C	< 6.25 µM	99.2%	97.9%
CCCCCCCCCCCC1=C(OC(=O)c2ccccc2F)C(=O)C=C(OC(=O)c2ccccc2F)C1=O [Structure #4, 2,5-bis-(2-fluorophenylcarbonyloxy)-3-undecyl-1,4-benzoquinone]	66.2 to 68 °C	7.78 µM	99.6%	100%
CCCCCCCCCCCC1=C(OC(=O)c2cccc([N+](=O)[O-])c2)C(=O)C=C(OC(=O)c2cccc([N+](=O)[O-])c2)C1=O [Structure #11, 2,5-bis-(3-nitrophenylcarbonyloxy)-3-undecyl-1,4-benzoquinone]	112.6 to 114.4 °C	27 µM	97.4%	98%
CCCCCCCCCCCC1=C(OC(=O)c2ccccc2I)C(=O)C=C(OC(=O)c2ccccc2I)C1=O [Structure #19, 2,5-bis-(2-iodophenylcarbonyloxy)-3-undecyl-1,4-benzoquinone]		129 µM	29.2%	100%
CCCCCCCCCCCC1=C(O)C(=O)C=C(O)C1=O [Structure #20, 2,5-Dihydroxy-3-undecyl-p-benzoquinone, reference compound]			67.9%	69.5%

The next lines start with the values.

melting point	IC50 (Pancreatic Lipase)	inhibition at 100 µM (Pancreatic Lipase)	inhibition at 200 µM (Pancreatic Lipase)	SMILES
110.2 to 112 °C				CCCCCCCCCCCC1=C(OC(=O)c2ccc(Cl)cc2)C(=O)C=C(OC(=O)c2ccc(Cl)cc2)C1=O (as salt: Na) [Structure #9, 2,5-bis-(4-chlorophenylcarbonyloxy)-3-undecyl-1,4-benzoquinone]
94.8 to 96 °C				CCCCCCCCCCCC1=C(OC(=O)c2ccc(C)cc2)C(=O)C=C(OC(=O)c2ccc(C)cc2)C1=O (as salt: Na) [Structure #12, 2,5-bis-(4-methylphenylcarbonyloxy)-3-undecyl-1,4-benzoquinone]
80.4 to 81.7 °C				CCCCCCCCCCCC1=C(OC(=O)c2cccc(C)c2)C(=O)C=C(OC(=O)c2cccc(C)c2)C1=O (as salt: Na) [Structure #13, 2,5-bis-(3-methylphenylcarbonyloxy)-3-undecyl-1,4-benzoquinone]
98.2 to 99.6 °C				CCCCCCCCCCCC1=C(OC(=O)c2ccccc2)C(=O)C=C(OC(=O)c2ccccc2)C1=O (as salt: Na) [Structure #15, 2,5-bis-(phenylcarbonyloxy)-3-undecyl-1,4-benzoquinone]
77.1 to 78.6 °C				CCCCCCCCCCCC1=C(OC(=O)c2cccc(OC)c2)C(=O)C=C(OC(=O)c2cccc(OC)c2)C1=O (as salt: Na) [Structure #17, 2,5-bis-(3-methoxyphenylcarbonyloxy)-3-undecyl-1,4-benzoquinone]
99.2 to 100.5 °C				CCCCCCCCCCCC1=C(OC(=O)c2ccc(OC)cc2)C(=O)C=C(OC(=O)c2ccc(OC)cc2)C1=O (as salt: Na) [Structure #18, 2,5-bis-(4-methoxyphenylcarbonyloxy)-3-undecyl-1,4-benzoquinone]
	94.2 µM	55.6%	94.1%	CCCCCCCCCCCC1=C(OC(=O)c2ccc(OC)cc2)C(=O)C=C(OC(=O)c2ccc(OC)cc2)C1=O [Structure #18, 2,5-bis-(4-methoxyphenylcarbonyloxy)-3-undecyl-1,4-benzoquinone]
